What was measured:
[1] = test system: A549 human adenocarcinoma cell line; experiment: Antiproliferative effect on A549 cells (MTT); format: cell-based; details: additional 48 hr exposure, read-out: A549 IC-50
Protocol: (§1) Discodermolide and discodermolide analogs were analyzed as to their effects on proliferation of A549 human adenocarcinoma and P388 murine leukemia cell lines. P388 cells were obtained from Dr. R. Camalier, National Cancer Institute, Bethesda, Md., and A549 cells were obtained from American Type Culture Collection, Rockville, Md. All cell lines were maintained in Roswell Park Memorial Institute (RPMI) medium 1640 supplemented with 10% Rehatuin™ fetal calf serum (Intergen Company, Purchase, N.Y.). All cell lines are cultured in plastic tissue culture flasks and kept in an incubator at 37° C. in humidified air containing 5% CO2. Prior to testing, antibiotic-free stock cultures of each of the cell lines were subcultured to 10^6 cells/ml by dilution in fresh growth medium at 2 to 3 day intervals.
After 48-hr exposures, P388 cells are enumerated using 3-[4,5-Dimethylthiazol-2-yl]-2,5-diphenyltetrazolium bromide (MTT) (M. C. Alley, et al., Cancer Res. 48:589, 1988). […] Results are expressed as percent inhibition compared to the negative (no drug) control. Positive drug controls are included to monitor drug sensitivity of each of the cell lines. These include varying dilutions of 5-fluorouracil and adriamycin.
(§2) To quantitate the effects on cell proliferation and resulting IC50 values, 75 μl of warm growth media containing 5 mg/ml MTT is added to each well, cultures returned to the incubator, and left undisturbed for 90 minutes. To spectrophotometrically quantitate formation of reduced formazan, plates are centrifuged (900× g, 5 minutes), culture fluids removed by aspiration, and 200 μl of acidified isopropanol (2 ml concentrated HCl/liter isopropanol) added per well. The absorbance of the resulting solutions is measured at 570 nm with a plate reader (TECAN Spectra II PlateReader, TECAN U.S., Research Triangle Park, N.C.) and a 650 nm reference filter. The absorbance of tests wells is divided by the absorbance of drug-free wells, and the concentration of agent that results in 50% of the absorbance of untreated cultures (IC50) is determined by linear regression of logit-transformed data (D. J. Finney, Statistical Method in Biological Assay, third ed., pp.316-348, Charles Griffin Co., London, 1978). A linear relationship between tumor cell number and formazan production has been routinely observed over the range of cell densities observed in these experiments. Two standard drug controls are included in each assay as a check to monitor the drug sensitivity of each of the cell lines and IC50 values are determined for each drug-cell combination.

[2] = test system: purified bovine brain tubulin; experiment: Tubulin polymerization (optical density at 350 nm); format: biochemical; details: for Polymerization?: 10 uM, 37 C.; for microtubule polymerizing activity compared to discodermolide: compared to the non-acetylated discodermolide
Protocol: Polymerization of purified bovine brain tubulin (Cytoskeleton Inc., Denver, Colo.) was followed by changes in the optical density of tubulin solutions at 350 nm in a Hitachi U-3010 spectrophotometer equipped with a SPR-10 electronic thermostatted cell holder. Stock solutions of tubulin were diluted on ice in G-PEM buffer (1 mM GTP, 80 mM PIPES, 1 mM EGTA, 0.5 mM magnesium chloride; pH 6.8) to a final concentration of 1 mg/ml. The instrument was zeroed on this solution at 2° C. Discodermolide, its analogs, or paclitaxel were then added to the tubulin solution to a final concentration of 10 μM, quickly mixed, and the absorbance monitored at 37° C.

[3] = test system: microtubule network of cells; experiment: Microtubule bundling patterns in cells by immunofluorescence; format: cell-based; details: for Microtubule bundling: concentration not given
Protocol: Discodermolide, discodermolide analogs and paclitaxel were evaluated as to their effects on the microtubule network of cells using FITC-labeled, anti-alpha-tubulin monoclonal antibodies.
On day 1, 2.5×10^5 adherent tumor cells were cultured in RPMI 1640 tissue culture medium supplemented with 10% fetal calf serum (TCM) overnight at 37° C. in 5% CO2 on 22 mm^2 coverslips in 6-well microtiter plates. […] On day 3, TCM was removed and cells attached to coverslips were fixed with a 3.7% formaldehyde solution in Dulbecco's PBS for 10 minutes at room temperature. Cells were permeabilized with a 2% Triton X-100 solution, 2 ml per well, for 5 minutes at room temperature and washed twice in Dulbecco's PBS prior to staining.
To each well containing cells attached to coverslips a 2 ml volume of mouse monoclonal anti-alpha-tubulin (Cat # T-5168, Sigma Immuno Chemicals) diluted 1:2400 was added and the cells incubated at 37° C. in 5% CO2 for 45 minutes. Coverslips were rinsed twice with Dulbecco's PBS. A 2 ml volume of goat-anti-mouse-IgG-FITC conjugate (Cat # T-5262, Sigma Immuno Chemicals) diluted at 1:2400 was added and the cells incubated at 37° C. in 5% CO2 for 45 minutes. Coverslips were rinsed once with sterile distilled water and mounted on slides and observed under the microscope using epifluorescence illumination for the presence of abnormal aster and microtubule bundle formation.

[4] = test system: P388 murine leukemia cell line; experiment: Antiproliferative effect on P388 cells (MTT, 48-hr exposure); format: cell-based; details: Mus musculus, read-out: P388 IC-50
Protocol: as §1
(§3) To assess the antiproliferative effects of agents against the P388 cell line, 200 μl cultures (96-well tissue culture plates, Nunc, Denmark) are established at 1×10^5 cells/ml in drug-free medium or medium containing the test agent at 10.0, 1.0, 0.10 and 0.010 μg/ml. The solvent for all dilutions is ethanol. All experimental cultures are initiated in medium containing Gentamycin sulfate (50 μg/ml; Schering Corporation, Kenilworth, N.J.).
(§4) After 48-hr exposures, P388 cells are enumerated using 3-[4,5-Dimethylthiazol-2-yl]-2,5-diphenyltetrazolium bromide (MTT) (M. C. Alley, et al., Cancer Res. 48:589, 1988). Similar procedures are utilized for A549 cells which require an additional 48 hr exposure prior to MTT addition. Results are expressed as percent inhibition compared to the negative (no drug) control. Positive drug controls are included to monitor drug sensitivity of each of the cell lines. These include varying dilutions of 5-fluorouracil and adriamycin.
as §2

[5] = test system: A549 human adenocarcinoma and P388 murine leukemia cell lines; experiment: Antitumor effects of discodermolide analogs compared to discodermolide; format: cell-based; details: compared to the non-acetylated discodermolide
Protocol: as §1, §3, §4
To quantitate the effects on cell proliferation and resulting IC50 values, 75 μl of warm growth media containing 5 mg/ml MTT is added to each well, cultures returned to the incubator, and left undisturbed for 90 minutes. […]

A549 human lung cells = experiment: Effect on cell cycle progression (G2/M block, propidium iodide flow cytometry); format: cell-based; details: 100 nM, 48 hr
Protocol: A549 human lung cells were used as cell cycle targets to compare the effects of discodermolide, discodermolide analogs and paclitaxel on perturbation of the cell cycle. Cell cycle analyses were performed as follows: A549 cells were incubated at 37° C. in 10% CO2 in air in the presence or absence of varying concentrations of discodermolide, discodermolide analogs or paclitaxel (purchased from Molecular Probes, Eugene Oreg.) for 48 hr.
Cells were harvested, fixed in ethanol and stained with 0.5 mg/ml of P.I. together with 0.1 mg/ml of RNAse A. This procedure permeabilizes live cells and allows entry of P.I. to stain DNA (propidium iodide also stains double stranded RNA, so RNAse is included in the preparation to exclude this possibility). Stained preparations were analyzed on a Coulter EPICS ELITE with 488 nm excitation with the dead cells excluded by back gating of P.I. preparations without detergent on forward and side scatter histograms. Fluorescence measurements and resulting DNA histograms were collected from at least 5,000 P.I. stained cells at an emission wavelength of 690 nm. Raw histogram data was further analyzed using a cell cycle analysis program (Multicycle, Phoenix Flow Systems).

[6] = test system: purified bovine brain tubulin; experiment: Tubulin polymerization (optical density at 350 nm); format: biochemical; details: 10 uM, 6 C.-37 C.

| Structure (SMILES) | IC50 [1] [nM] | Polymerization? [2] | Polymerization? ([2]; listed as paclitaxel) | Microtubule Bundling? ([3]; 100 nM) | Microtubule Bundling? ([3]; 100 nM, listed as paclitaxel) | Microtubule bundling [3] | IC50 [4] [nM] | microtubule polymerizing activity compared to discodermolide [2] | antitumor activity compared to discodermolide [5] | Microtubule Bundling? ([3]; 10 nM) | Microtubule Bundling? ([3]; 1000 nM) | G2/M Block (A549 human lung cells) | Polymerization? ([2]; listed as discodermolide 9) | Microtubule Bundling? ([3]; 100 nM, listed as Discodermolide9) | Polymerization? [6] |
| --- | --- | --- | --- | --- | --- | --- | --- | --- | --- | --- | --- | --- | --- | --- | --- |
| CC(=O)O[C@H]1C(=O)[C@@]2(C)[C@H]([C@H](OC(=O)c3ccccc3)[C@]3(O)C[C@H](OC(=O)[C@H](O)[C@@H](NC(=O)c4ccccc4)c4ccccc4)C(C)=C1C3(C)C)[C@]1(OC(C)=O)CO[C@@H]1C[C@@H]2O [Paclitaxel, reference compound] | 7.7 | Yes | induced the polymerization of purified tubulin | Yes | induced the formation of microtubule bundles | routinely exhibit abnormal formation of multiple centriolar-radiating microtubules with extensive clusters of associated microtubular "bundles" | – | – | – | – | – | – | – | – | – |
| C=CC=CC(C)C(OC(N)=O)C(C)C(OC(C)=O)C(C)CC(C)=CC(C)C(OC(C)=O)C(C)C=CC(CC1OC(=O)C(C)C(OC(C)=O)C1C)OC(C)=O (stereo not drawn) [Analog 1, Discodermolide-3,7,11,17-tetraacetate] | 1310 | No and inactive | – | No | – | negative | 837 | – | – | – | – | – | – | – | – |
| C=CC=CC(C)C(OC(N)=O)C(C)C(O)C(C)CC(C)=CC(C)C(O)C(C)C=CC(O)CC1OC(=O)C(C)C(OC(C)=O)C1C (stereo not drawn) [Analog 7, Discodermolide-3-acetate] | 9.4 | Yes and able to induce tubulin polymerization | – | Yes and induced similar microtubule bundle formation | – | – | 9 | improved | improved | Yes | – | – | – | – | – |
| C=CC=CC(C)C(OC(N)=O)C(C)C(OC(C)=O)C(C)CC(C)=CC(C)C(O)C(C)C=CC(O)CC1OC(=O)C(C)C(OC(C)=O)C1C (stereo not drawn) [Analog 6, Discodermolide-3,17-diacetate] | 736 | No and inactive | – | No | – | – | 1150 | – | – | – | Yes and induced microtubule bundles only at 1000 nM | – | – | – | – |
| C=CC=CC(C)C(OC(N)=O)C(C)C(O)C(C)CC(C)=CC(C)C(OC(C)=O)C(C)C=CC(O)CC1OC(=O)C(C)C(OC(C)=O)C1C (stereo not drawn) [Analog 5, Discodermolide-3,11-diacetate] | 295 | No and inactive | – | No | – | negative | 103 | – | – | – | – | – | – | – | – |
| C=C/C=C\[C@H](C)[C@H](OC(N)=O)[C@@H](C)[C@H](O)[C@@H](C)C/C(C)=C\[C@H](C)[C@@H](O)[C@@H](C)/C=C\[C@@H](O)C[C@@H]1OC(=O)[C@H](C)[C@@H](O)[C@H]1C [Discodermolide 9, (+)discodermolide, reference compound] | 34 | Yes | – | Yes | – | routinely exhibit abnormal formation of multiple centriolar-radiating microtubules with extensive clusters of associated microtubular "bundles" | 35 | – | – | Yes | – | induced cell cycle, G2 /M block | induced the polymerization of purified tubulin | induced the formation of microtubule bundles | – |
| C=CC=CC(C)C(OC(N)=O)C(C)C(OC(C)=O)C(C)CC(C)=CC(C)C(O)C(C)C=CC(CC1OC(=O)C(C)C(OC(C)=O)C1C)OC(C)=O (stereo not drawn) [Analog 2, Discodermolide-3,7,17-triacetate] | > 1310 | No and inactive | – | No | – | negative | > 6820 | – | – | – | No | – | – | – | – |
| C=CC=CC(C)C(OC(N)=O)C(C)C(O)C(C)CC(C)=CC(C)C(OC(C)=O)C(C)C=CC(CC1OC(=O)C(C)C(OC(C)=O)C1C)OC(C)=O (stereo not drawn) [Analog 3, Discodermolide-3,7,11-triacetate] | 554 | No and inactive | – | No | – | negative | 166 | – | – | – | – | – | – | – | – |
| C=CC=CC(C)C(OC(N)=O)C(C)C(O)C(C)CC(C)=CC(C)C(O)C(C)C=CC(CC1OC(=O)C(C)C(OC(C)=O)C1C)OC(C)=O (stereo not drawn) [Analog 4, Discodermolide-3,7-diacetate] | 3.7 | Yes and able to induce tubulin polymerization | – | Yes and induced similar microtubule bundle formation | – | – | 0.7 | improved | improved | Yes | – | – | – | – | – |
| C=CC=CC(C)C(OC(N)=O)C(C)C(O)C(C)CC(C)=CC(C)C(O)C(C)C=CC(CC1OC(=O)C(C)C(O)C1C)OC(C)=O (stereo not drawn) [Analog 8, Discodermolide-7-acetate] | 0.8 | able to induce tubulin polymerization | – | Yes and induced similar microtubule bundle formation | – | – | 4 | improved | improved | – | Yes | – | – | – | Yes |

From US6127406A, “Discodermolide compounds and methods of use” (Harbor Branch Oceanographic Institution, Inc., priority 1999, dated 2000)
